Columns and labels:
myofibroblast formation = conditions: Ajmal et al. (2003); cited from earlier work
[1] = Post implant serum concentration of antibiotic; assay type: in vivo; conditions: other: implantation
[2] = Tissue concentration of antibiotic after implantation; assay type: in vivo; conditions: other: implantation
[3] = Pocket concentration of antibiotic after implantation; assay type: in vivo; conditions: other: implantation
[4] = after about 2 hours, range worded for embodiments, see Table 9
[5] = after about 6 hours, range worded for embodiments, see Table 9
[6] = after about 24 hours, range worded for embodiments, see Table 9
[7] = 2 h, Left, read-out: Average Tissue concentration
[8] = 2 h, Right, read-out: Average Tissue concentration
[9] = 6 h, Left, read-out: Average Tissue concentration
[10] = 6 h, Right, read-out: Average Tissue concentration
[11] = 24 h, Left, read-out: Average Tissue concentration
[12] = 24 h, Right, read-out: Average Tissue concentration
[13] = after about 2 hours, range worded for embodiments, see Table 7, read-out: tissue concentration
[14] = after about 6 hours, range worded for embodiments, see Table 7, read-out: tissue concentration
[15] = after about 24 hours, range worded for embodiments, see Table 7, read-out: tissue concentration
[16] = after about 2 hours, range worded for embodiments, see Table 8
[17] = after about 6 hours, range worded for embodiments, see Table 8

Row | SMILES | concentration at 2 h ([1]; 2 h) [ng/mL] | concentration at 6 h ([1]; 6 h) [ng/mL] | concentration at 24 h ([1]; 24 h) [ng/mL] | concentration at 2 h [1, 4] [ng/mL] | concentration at 6 h [1, 5] [ng/mL] | concentration at 24 h [1, 6] [ng/mL] | concentration at 2 h [2, 7] [ng/mL] | concentration at 2 h [2, 8] [ng/mL] | concentration at 6 h [2, 9] [ng/mL] | concentration at 6 h [2, 10] [ng/mL] | concentration at 24 h [2, 11] [ng/mL] | concentration at 24 h [2, 12] [ng/mL] | concentration at 2 h [2, 13] [ng/mL] | concentration at 6 h [2, 14] [ng/mL] | concentration at 24 h [2, 15] [ng/mL] | concentration at 2 h ([3]; 2 h, Left) [ng/mL] | concentration at 6 h ([3]; 6 h, Left) [µg/mL] | concentration at 6 h ([3]; 6 h, Right) [µg/mL] | concentration at 2 h [3, 16] [ng/mL] | concentration at 6 h [3, 17] [µg/mL] | further results
1 | O=S(=O)([O-])CCS.[Na+] [MESNA, sodium 2-mercaptoethane sulfonate] | – | – | – | – | – | – | – | – | – | – | – | – | – | – | – | – | – | – | – | – | myofibroblast formation (myofibroblast formation): diminish myofibroblast formation
2 | CN(C)c1ccc(O)c2c1C[C@H]1C[C@H]3[C@H](N(C)C)C(O)=C(C(N)=O)C(=O)[C@@]3(O)C(O)=C1C2=O [Minocycline] | 46.5 | 79.1 | 69.4 | 30 to 60 | 60 to 100 | 50 to 90 | 700 | 783 | 2680 | 2600 | 1330 | 1840 | 650 to 800 | 2550 to 2750 | 1200 to 1900 | 16400 | 26.8 | 207 | 15000 to 17000 | 25 to 210 | –
3 | CO[C@H]1/C=C/O[C@@]2(C)Oc3c(C)c(O)c4c(O)c(c(/C=N/N5CCN(C)CC5)c(O)c4c3C2=O)NC(=O)/C(C)=C\C=C\[C@H](C)[C@H](O)[C@@H](C)[C@@H](O)[C@@H](C)[C@H](OC(C)=O)[C@@H]1C [Rifampin] | 27.1 | 20.8 | 44.3 | 15 to 45 | 10 to 40 | 30 to 60 | 765 | 1270 | 2080 | 2210 | 4040 | 2720 | 600 to 1400 | 1900 to 2300 | 2600 to 4200 | 2020 | 19.6 | 100 | 1000 to 20000 | 15 to 110 | concentration at 2 h ([3]; 2 h, Right): 16400 ng/mL

From patent publication US9585988B2, “Anchorage devices comprising an active pharmaceutical ingredient” (TYRX, Inc., priority 2010, dated 2017)
